What was measured:
[1] = biological target: human dCK (Homo sapiens, UniProt P27707); assay: Phosphorylation assay (spectrophotometric coupled-enzyme), human dCK; type: biochemical; conditions: substrate at 100 μM; 37° C.; 1 mM ATP; triplicate
Protocol: (§1) Compounds of the invention were also tested in a phosphorylation assay using three deoxynucleoside kinases. […] The compounds were at substrate concentration of 100 μM.
(§2) Kinetic assay. […] Briefly, the individual nucleosides at 100 μM were prepared in reaction buffer containing 50 mM Tris-HCl (pH 7.5), 0.1 M KCl, 5 mM MgCl2, 1 mM DTT, 1 mM ATP, 0.21 mM phosphoenolpyruvate, 0.18 mM NADH, and 2 units/ml pyruvate kinase and 2 units/ml lactate dehydrogenase (Roche Biochemicals, Indianapolis, Ind.). Assays were performed at 37° C. by measuring the absorbance change at 340 nm. The enzyme amount was adjusted to limit NADH turnover to 10% over the time of the experiment. All experiments were performed in triplicate.

[2] = biological target: T1, Drosophila melanogaster dNK (Drosophila melanogaster, UniProt Q9XZT6); assay: Phosphorylation assay (spectrophotometric coupled-enzyme), D. melanogaster dNK; type: biochemical; conditions: substrate at 100 μM, 37° C., 1 mM ATP, triplicate
T1 sequence (Q9XZT6 1-250): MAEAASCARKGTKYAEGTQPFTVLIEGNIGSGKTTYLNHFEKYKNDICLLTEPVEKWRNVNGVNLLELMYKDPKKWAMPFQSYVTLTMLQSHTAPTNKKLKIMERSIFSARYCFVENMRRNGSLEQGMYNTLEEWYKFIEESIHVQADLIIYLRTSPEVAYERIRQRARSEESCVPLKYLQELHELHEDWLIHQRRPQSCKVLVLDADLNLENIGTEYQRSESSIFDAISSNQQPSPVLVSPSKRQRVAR
Protocol: as §1, §2

[3] = in vitro; conditions: human, NCI H1395 cells
[4] = in vitro; conditions: human, MOLT-4 cells
[5] = MTT cell proliferation assay, ZR-75-1; type: cell-based; conditions: human, ZR-75-1 cells, concentration causing 50% cell death of initial cell count over 24 hours, 1% DMSO
Protocol: (§3) The antitumor activities of the compounds of the invention were evaluated by a cellular proliferation assay. The MTT [3-(4,5-dimethylthiazol-2-yl)-2,5-diphenyltetrazolium bromide] cell proliferation assay, first described by Mosmann (Mosmann T., “Rapid colorimetric assay for cellular growth and survival: application to proliferation and cytotoxicity assays,” J. Immunol. Methods 1983 Dec. 16; 65(1-2):55-63, and incorporated by reference in its entirety) is based on the ability of active mitochondrial reductase enzymes from viable cells to cleave the tetrazolium rings of the pale yellow MTT. The cleavage reaction form a purple formazan crystals which is largely impermeable to cell membranes resulting in its accumulation within healthy cells. Solubilisation of the cells by addition of a detergent liberates and solubilizes the formazan crystals. The number of surviving cells is directly proportional to the level of the formazan product created. The color can then be quantified spectrophotometrically. The production of purple formazan in cells treated with a compound is measured relative to the production in control cells, and dose-response curves can be generated. This assay measures the cell proliferation rate and conversely, when metabolic events lead to apoptosis or necrosis, the reduction in cell viability, thus also allowing the evaluation of the cytotoxicity of the analogues synthesized in the laboratory.
(§4) For Tables 3 and 4, the assays were performed with 1% DMSO. The abbreviation “n.d.” means “not determined.” The values EC50, CC50, and SI have the following definitions.
(§5) Cell growth equals total cell count without any inhibitor after 72 hours minus initial cell count. Total cell counts after 72 hrs of growth range from 230 to 346% of initial cell counts depending on the cell line.
(§6) Total cell counts after 24 hrs of growth range from 103 to 109% of initial cell counts depending on the cell line.
(§7) SI: Selectivity Index is the ratio CC50/EC50.

[6] = system: ZR-75-1; assay: MTT cell proliferation assay, ZR-75-1; type: cell-based; conditions: Homo sapiens, concentration reducing cell growth by 50% after 72 hours, 1% DMSO
Protocol: as §3, §4, §5, §6, §7

[7] = system: Panc 02.03; assay: MTT cell proliferation assay, Panc 02.03; type: cell-based; conditions: Homo sapiens, concentration reducing cell growth by 50% after 72 hours, 1% DMSO
Protocol: (§8) The antitumor activities of the compounds of the invention were evaluated by a cellular proliferation assay. […] The cleavage reaction form a purple formazan crystals which is largely impermeable to cell membranes resulting in its accumulation within healthy cells. Solubilisation of the cells by addition of a detergent liberates and solubilizes the formazan crystals. The number of surviving cells is directly proportional to the level of the formazan product created. The color can then be quantified spectrophotometrically. The production of purple formazan in cells treated with a compound is measured relative to the production in control cells, and dose-response curves can be generated. This assay measures the cell proliferation rate and conversely, when metabolic events lead to apoptosis or necrosis, the reduction in cell viability, thus also allowing the evaluation of the cytotoxicity of the analogues synthesized in the laboratory.
as §4
(§9) Cell growth equals total cell count without any inhibitor after 72 hours minus initial cell count.
as §7

[8] = MTT cell proliferation assay, Panc 02.03; type: cell-based; conditions: human, Panc 02.03 cells, concentration causing 50% cell death of initial cell count over 24 hours, 1% DMSO
Protocol: as §8, §4, §9, §7

[9] = in vitro; conditions: human, NCI H2052 cells
[10] = system: PFSK-1; assay: MTT cell proliferation assay, PFSK-1; type: cell-based; conditions: Homo sapiens, concentration reducing cell growth by 50% after 72 hours, 1% DMSO
Protocol: as §8, §4, §9, §7

[11] = MTT cell proliferation assay, PFSK-1; type: cell-based; conditions: human, PFSK-1 cells, concentration causing 50% cell death of initial cell count over 24 hours, 1% DMSO
Protocol: as §8, §4, §9, §7

[12] = biological target: Thermotoga maritima thymidine kinase (Thermotoga maritima, UniProt Q9WYN2); assay: Phosphorylation assay (spectrophotometric coupled-enzyme), T. maritima TK; type: biochemical; conditions: substrate at 100 μM, 37° C., 1 mM ATP, triplicate
Thermotoga maritima thymidine kinase, sequence (Q9WYN2 whole entry): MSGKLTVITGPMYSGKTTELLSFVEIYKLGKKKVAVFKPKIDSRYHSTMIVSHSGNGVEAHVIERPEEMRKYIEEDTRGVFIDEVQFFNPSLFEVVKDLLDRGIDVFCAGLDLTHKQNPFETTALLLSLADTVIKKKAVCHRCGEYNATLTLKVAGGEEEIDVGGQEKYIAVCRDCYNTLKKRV
Protocol: Compounds of the invention were also tested in a phosphorylation assay using three deoxynucleoside kinases. The kinases include human dCK, which is responsible for the activation of numerous nucleoside analog prodrugs; Drosophila melanogaster dNK, which is the fastest known kinases with the broadest substrate specificity profile; and Thermotoga maritima thymidine kinase, which is a good surrogate for human thymidine kinase 1, a member of the distinct type II kinase subfamily. The compounds were at substrate concentration of 100 μM.
Kinetic assay. Substrate phosphorylation was determined using a spectrophotometric coupled-enzyme assay (Munch-Petersen et al. (2000) J. Biol. Chem. vol. 275p. 66′73-66′79; Schelling et al. (2001) Anal. Biochem vol. 295 p. 82-8′7). Briefly, the individual nucleosides at 100 μM were prepared in reaction buffer containing 50 mM Tris-HCl (pH 7.5), 0.1 M KCl, 5 mM MgCl2, 1 mM DTT, 1 mM ATP, 0.21 mM phosphoenolpyruvate, 0.18 mM NADH, and 2 units/ml pyruvate kinase and 2 units/ml lactate dehydrogenase (Roche Biochemicals, Indianapolis, Ind.). Assays were performed at 37° C. by measuring the absorbance change at 340 nm. The enzyme amount was adjusted to limit NADH turnover to 10% over the time of the experiment. All experiments were performed in triplicate.

human dCK, sequence (P27707 whole entry): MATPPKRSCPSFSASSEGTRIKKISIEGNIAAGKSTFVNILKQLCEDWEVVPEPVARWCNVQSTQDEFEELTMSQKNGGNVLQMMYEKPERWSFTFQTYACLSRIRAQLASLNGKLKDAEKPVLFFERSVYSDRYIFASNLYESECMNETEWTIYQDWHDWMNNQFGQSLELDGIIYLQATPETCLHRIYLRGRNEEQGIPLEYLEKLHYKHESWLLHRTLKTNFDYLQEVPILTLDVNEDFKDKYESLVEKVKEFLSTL

Structure (SMILES) | Human dCK kinase substrate phosphorylation [1] | D. melanogaster dNK substrate phosphorylation [2] | CC50 at 24 h [3] [µM] | CC50 at 24 h [4] [µM] | CC50 at 24 h [5] [µM] | EC50 [6] [µM] | EC50 [7] [µM] | CC50 at 24 h [8] [µM] | CC50 at 24 h [9] [µM] | EC50 [10] [µM] | CC50 at 24 h [11] [µM] | EC50 ([6]; ZR-75-1, 72 h) [µM] | D. melanogaster dNK substrate phosphorylation ([2]; listed as LCB-1009-1) | T. maritima TK substrate phosphorylation ([12]; listed as LCB-1009-1) | EC50 ([10]; PFSK-1, 72 h) [µM] | D. melanogaster dNK substrate phosphorylation ([2]; listed as LCB-1010-1) | T. maritima TK substrate phosphorylation ([12]; listed as LCB-1010-1) | T. maritima TK substrate phosphorylation [12] | D. melanogaster dNK substrate phosphorylation ([2]; listed as LCB-1015-1) | T. maritima TK substrate phosphorylation ([12]; listed as LCB-1015-1)
COC(=O)c1cn([C@H]2S[C@@H](CO)C(O)[C@@H]2O)nn1 (stereo partly shown) [LCB-1013] | <1 10^−3 μmol/min mg | <0.1 10^6 μmol/min mg | – | – | – | – | – | – | – | – | – | – | – | – | – | – | – | – | – | –
Nc1ccn([C@@H]2O[C@H](CO)[C@@H](O)[C@@H]2O)c(=O)n1 [Cytarabine, reference compound] | – | – | 428 | > 500 | > 500 | > 500 | 300 | > 500 | > 500 | 360 | > 500 | – | – | – | – | – | – | – | – | –
COC(=O)C1(C)C[C@H](n2cc(C)c(=O)[nH]c2=O)O[C@@H]1CO (mixture of isomers) [LCB-1009, (±) methyl 2-(hydroxymethyl)-3-methyl-5-(5-methyl-2,4-dioxo-3,4-dihydropyrimidin-1(2H)-yl)tetrahydrofuran-3-carboxylate] | – | – | > 500 | – | > 500 | – | > 500 | > 500 | > 500 | – | > 500 | > 500 | 3.49 10^6 μmol/min mg | 11.9 10^−3 μmol/min mg | > 500 | – | – | – | – | –
CC1(CO)C[C@H](n2ccc(N)nc2=O)O[C@@H]1CO (mixture of isomers) [LCB-1011] | 12 10^−3 μmol/min mg | 0.35 10^6 μmol/min mg | > 500 | – | > 500 | – | – | – | > 500 | – | > 500 | > 500 | – | – | > 500 | – | – | – | – | –
COC(=O)C1(C)CC(n2cc(C)c(=O)[nH]c2=O)OC1CO (racemic) [LCB-1010, (±) methyl 2-(hydroxymethyl)-3-methyl-5-(5-methyl-2,4-dioxo-3,4-dihydropyrimidin-1(2H)-yl)tetrahydrofuran-3-carboxylate] | – | – | > 500 | – | > 500 | – | > 500 | > 500 | > 500 | – | > 500 | 180 | – | – | > 500 | 2.84 10^6 μmol/min mg | 6 10^−3 μmol/min mg | – | – | –
CC1(CO)CC(n2ccc(N)nc2=O)O[C@@H]1CO (mixture of isomers) [LCB-1012] | 17 10^−3 μmol/min mg | 5.94 10^6 μmol/min mg | > 500 | – | > 500 | – | – | – | > 500 | – | > 500 | > 500 | – | – | > 500 | – | – | – | – | –
CCOC(=O)[C@@H]1O[C@H](n2cc(F)c(=O)[nH]c2=O)CC1(C)C(=O)OCC (stereo in doubt) [LCB-1024, (2R,5S)-diethyl5-(5-fluoro-2,4-dioxo-3,4-dihydropyrimidin-1(2H)-yl)-3-methyltetrahydrofuran-2,3-dicarboxylate] | – | <0.1 10^6 μmol/min mg | > 460 | > 460 | > 460 | – | – | – | > 460 | – | > 460 | > 460 | – | – | 190 | – | – | 4.2 10^−3 μmol/min mg | – | –
COC(=O)C1(C)C[C@H](n2cc(F)c(=O)[nH]c2=O)O[C@@H]1CO (mixture of isomers) [LCB-1015, 5-(5-Fluoro-2,4-dioxo-3,4-dihydro-2H-pyrimidin-1-yl)-2-hydroxymethyl-3-methyl-tetrahydro-furan-3-carboxylic acid methyl ester] | – | – | > 500 | – | > 500 | – | > 500 | > 500 | > 500 | – | > 500 | 420 | – | – | 380 | – | – | – | <0.1 10^6 μmol/min mg | <1 10^−3 μmol/min mg
Cc1cc(=O)[nH]c(=O)n1[C@H]1CC(C)(CO)[C@@H](CO)O1 (mixture of isomers) [LCB-1021, 1-(4,5-Bis-hydroxymethyl-4-methyl-tetrahydro-furan-2-yl)-6-methyl-1H-pyrimidine-2,4-dione] | – | <0.1 10^6 μmol/min mg | > 500 | > 500 | > 500 | – | – | – | > 500 | – | > 500 | > 500 | – | – | > 500 | – | – | 2.2 10^−3 μmol/min mg | – | –
CC1(C(N)=O)CC(n2ccc(N)nc2=O)O[C@@H]1CO (mixture of isomers) [LCB-1018] | 63 10^−3 μmol/min mg | 0.2 10^6 μmol/min mg | > 500 | – | > 500 | – | > 500 | > 500 | > 500 | – | > 500 | > 500 | – | – | > 500 | – | – | – | – | –
CCOC(=O)[C@@H]1O[C@H](n2ccc(=O)[nH]c2=O)CC1(C)C(=O)OCC (stereo partly drawn) [LCB-1025, (2R,5S)-diethyl 5-(2,4-dioxo-3,4-dihydropyrimidin-1(2H)-yl)-3-methyltetrahydrofuran-2,3-dicarboxylate] | – | <0.1 10^6 μmol/min mg | > 460 | > 460 | > 460 | – | – | – | > 460 | – | > 460 | > 460 | – | – | > 460 | – | – | <1 10^−3 μmol/min mg | – | –
